Measured values published in paper PMC11995724, “Antibiotic target discovery by integrated phenotypic and activity-based profiling of electrophilic fragments” (Cell chemical biology, 2025).

Assay: in vitro
Settings: human, hek293t cells

SMILES: CCCC(=O)Nc1ccc(C(=O)C(C)Cl)cc1 (stereo not drawn) [10-O06, N-[4-(2-chloropropanoyl)phenyl]butanamide]
- viability at 48 h, 25 µM: 85.1%

SMILES: C=CC(=O)NCc1ccc(-n2ccc(C3CC3)n2)cc1 [2-B03, N-{[4-(3-cyclopropyl-1H-pyrazol-1-yl)phenyl]methyl}prop-2-enamide]
- viability at 48 h, 25 µM: 85.9%

SMILES: C=CC(=O)N(CC)CC(=O)NC1CCN(C(C)=O)c2ccccc21 (stereo not drawn) [2-N06, N-{[(1-acetyl-1,2,3,4-tetrahydroquinolin-4-yl)carbamoyl]methyl}-N-ethylprop-2-enamide]
- viability at 48 h, 25 µM: 99.7%

SMILES: C=CC(=O)Nc1ccc(C(=O)N2CCCC2C(=O)NC2CC2)cc1 (stereo not drawn) [2-I21, N-cyclopropyl-1-[4-(prop-2-enamido)benzoyl]pyrrolidine-2-carboxamide]
- viability at 48 h, 25 µM: 175%

SMILES: C=CC(=O)NCc1cc(Cl)c2c(c1)OCO2 [2-F15, N-[(7-chloro-1,3-dioxaindan-5-yl)methyl]prop-2-enamide]
- viability at 48 h, 25 µM: 50.9%

SMILES: C#Cc1cccc(N(Cc2cc3n(n2)CCCO3)C(=O)CCl)c1 [5-O10, 2-chloro-N-(3-ethynylphenyl)-N-({5H,6H,7H-pyrazolo[3,2-b][1,3]oxazin-2-yl}methyl)acetamide]
- viability at 48 h, 25 µM: 0.703%

SMILES: CC(Cl)C(=O)NCCc1csc(N2CCCC2)n1 (stereo not drawn) [7-O08, 2-chloro-N-{2-[2-(pyrrolidin-1-yl)-1,3-thiazol-4-yl]ethyl}propanamide]
- viability at 48 h, 25 µM: 95.9%

SMILES: N#CC(C(=O)CCl)=C1NC2=C(CCc3ccccc32)S1 [10-N10, 4-chloro-2-{1H,2H,4H,5H-naphtho[1,2-d][1,3]thiazol-2-ylidene}-3-oxobutanenitrile]
- viability at 48 h, 25 µM: 12.3%

SMILES: CC(NC(=O)CCl)C(=O)N1CCS(=O)(=O)CC1 (stereo not drawn) [5-K14, 2-chloro-N-[1-(1,1-dioxo-1lambda6-thiomorpholin-4-yl)-1-oxopropan-2-yl]acetamide]
- viability at 48 h, 25 µM: 86.7%

SMILES: C=CC(=O)N1CCC(C(=O)N(C)C(C)c2sc(CC)nc2C)CC1 (stereo not drawn) [2-P04, N-[1-(2-ethyl-4-methyl-1,3-thiazol-5-yl)ethyl]-N-methyl-1-(prop-2-enoyl)piperidine-4-carboxamide]
- viability at 48 h, 25 µM: 95.1%

SMILES: O=S(=O)(c1cc(Cl)cc(Cl)c1)N1CCSSCC1 [10-J09, 5-(3,5-dichlorobenzenesulfonyl)-1,2,5-dithiazepane]
- viability at 48 h, 25 µM: 102%

SMILES: O=C(CCl)Nc1nccc(Cl)n1 [6-C19, 2-chloro-N-(4-chloropyrimidin-2-yl)acetamide]
- viability at 48 h, 25 µM: 100%

SMILES: C=CC(=O)N1CCC(C(=O)N(C)CCn2cccn2)CC1 [2-J12, N-methyl-1-(prop-2-enoyl)-N-[2-(1H-pyrazol-1-yl)ethyl]piperidine-4-carboxamide]
- viability at 48 h, 25 µM: 74.5%

SMILES: CC(Cl)C(=O)NCc1ccco1 (stereo not drawn) [5-B09, 2-chloro-N-[(furan-2-yl)methyl]propanamide]
- viability at 48 h, 25 µM: 96.6%

SMILES: C=CC(=O)N(C)Cc1nnc(C2CC2)n1C [2-H11, N-[(5-cyclopropyl-4-methyl-4H-1,2,4-triazol-3-yl)methyl]-N-methylprop-2-enamide]
- viability at 48 h, 25 µM: 72.8%

SMILES: O=C(CCl)Nc1cc(S(=O)(=O)N2CCCCC2)ccc1Cl [4-F09, 2-chloro-N-[2-chloro-5-(piperidine-1-sulfonyl)phenyl]acetamide]
- viability at 48 h, 25 µM: 0.505%

SMILES: Cn1nccc1CN1C[C@@H](F)C[C@H]1CNC(=O)CCl [5-C04, 2-chloro-N-{[(2S,4S)-4-fluoro-1-[(1-methyl-1H-pyrazol-5-yl)methyl]pyrrolidin-2-yl]methyl}acetamide]
- viability at 48 h, 25 µM: 117%

SMILES: CC(Cl)C(=O)N1CCC(c2nc(N(C)C)no2)CC1 (stereo not drawn) [6-F05, 2-chloro-1-{4-[3-(dimethylamino)-1,2,4-oxadiazol-5-yl]piperidin-1-yl}propan-1-one]
- viability at 48 h, 25 µM: 108%

SMILES: C=CC(=O)Nc1ccnn1C1CCCC1 [2-K13, N-(1-cyclopentyl-1H-pyrazol-5-yl)prop-2-enamide]
- viability at 48 h, 25 µM: 24%

SMILES: C=CC(=O)NCc1ncccc1-n1cccn1 [2-N19, N-{[3-(1H-pyrazol-1-yl)pyridin-2-yl]methyl}prop-2-enamide]
- viability at 48 h, 25 µM: 70.3%

SMILES: O=C(CCl)NC1CCN(C(=O)c2ccco2)c2ccccc21 (stereo not drawn) [5-O07, 2-chloro-N-[1-(furan-2-carbonyl)-1,2,3,4-tetrahydroquinolin-4-yl]acetamide]
- viability at 48 h, 25 µM: 1.59%

SMILES: Cc1c(C=C(C#N)C(=O)NCc2ccccc2)cc(C#N)n1C [9-I15, N-benzyl-2-cyano-3-(5-cyano-1,2-dimethyl-1H-pyrrol-3-yl)prop-2-enamide]
- viability at 48 h, 25 µM: 134%

SMILES: CC(NC(=O)CCl)c1nnc(-c2ccccc2F)s1 (stereo not drawn) [7-L21, 2-chloro-N-{1-[5-(2-fluorophenyl)-1,3,4-thiadiazol-2-yl]ethyl}acetamide]
- viability at 48 h, 25 µM: 0.564%

SMILES: CCc1nc2cc(CNC(=O)C(C)Cl)ccc2n1C1CC1 (stereo not drawn) [6-N09, 2-chloro-N-[(1-cyclopropyl-2-ethyl-1H-1,3-benzodiazol-5-yl)methyl]propanamide]
- viability at 48 h, 25 µM: 102%

SMILES: CCOC(=O)c1cnn2ccc(NC(=O)C(C)Cl)cc12 (stereo not drawn) [5-N21, ethyl 5-(2-chloropropanamido)pyrazolo[1,5-a]pyridine-3-carboxylate]
- viability at 48 h, 25 µM: 89.8%

SMILES: CC(Cl)C(=O)N1CCc2ccccc21 (stereo not drawn) [5-H04, 2-chloro-1-(2,3-dihydro-1H-indol-1-yl)propan-1-one]
- viability at 48 h, 25 µM: 114%

SMILES: Cc1ccc(C=C(C#N)C(=O)NC(C)C)o1 [8-I21, 2-cyano-3-(5-methylfuran-2-yl)-N-(propan-2-yl)prop-2-enamide]
- viability at 48 h, 25 µM: 95.7%

SMILES: C=CC(=O)N(C)CC(=O)N1CCN(C(=O)c2cccc(O)c2)CC1 [2-J22, N-{2-[4-(3-hydroxybenzoyl)piperazin-1-yl]-2-oxoethyl}-N-methylprop-2-enamide]
- viability at 48 h, 25 µM: 97.7%

SMILES: C=CC(=O)NCc1ccc(C(=O)N2CCC(c3ccn[nH]3)CC2)cc1 [3-K08, N-({4-[4-(1H-pyrazol-5-yl)piperidine-1-carbonyl]phenyl}methyl)prop-2-enamide]
- viability at 48 h, 25 µM: 95.2%

SMILES: COc1cc(C=C(C#N)C(=O)NC(C)C)cc(OC)c1 [8-F15, 2-cyano-3-(3,5-dimethoxyphenyl)-N-(propan-2-yl)prop-2-enamide]
- viability at 48 h, 25 µM: 82.4%

SMILES: C=CC(=O)N1CCN(c2nccn(C)c2=O)CC1 [3-P20, 1-methyl-3-[4-(prop-2-enoyl)piperazin-1-yl]-1,2-dihydropyrazin-2-one]
- viability at 48 h, 25 µM: 181%

SMILES: C=CC(=O)Nc1cc(NC(=O)[C@H]2C[C@@H](C(C)=O)C2(C)C)ccc1F [2-H22, (1S,3R)-3-acetyl-N-[4-fluoro-3-(prop-2-enamido)phenyl]-2,2-dimethylcyclobutane-1-carboxamide]
- viability at 48 h, 25 µM: 97.4%

SMILES: C=CC(=O)NC1(c2nc(C3CC3)cc(=O)[nH]2)CCCCC1 [3-H13, N-[1-(4-cyclopropyl-6-oxo-1,6-dihydropyrimidin-2-yl)cyclohexyl]prop-2-enamide]
- viability at 48 h, 25 µM: 68.3%

SMILES: C=CC(=O)NCc1cnc(CC(C)C)s1 [1-J10, N-{[2-(2-methylpropyl)-1,3-thiazol-5-yl]methyl}prop-2-enamide]
- viability at 48 h, 25 µM: 84.2%

SMILES: CC(C)c1nc(C=C(C#N)C(=O)NC2CCCCC2)c2ccccn12 [9-B15, 2-cyano-N-cyclohexyl-3-[3-(propan-2-yl)imidazo[1,5-a]pyridin-1-yl]prop-2-enamide]
- viability at 48 h, 25 µM: 103%

SMILES: C=CC(=O)NC(C)c1nnnn1C1CC1 (stereo not drawn) [1-M09, N-[1-(1-cyclopropyl-1H-1,2,3,4-tetrazol-5-yl)ethyl]prop-2-enamide]
- viability at 48 h, 25 µM: 82.7%

SMILES: Cc1ccnc(-c2n[nH]c(C(C)NC(=O)C(C)Cl)n2)c1 (stereo not drawn) [7-I10, 2-chloro-N-{1-[3-(4-methylpyridin-2-yl)-1H-1,2,4-triazol-5-yl]ethyl}propanamide]
- viability at 48 h, 25 µM: 71.1%

SMILES: CNC(=O)Cn1ccc2ccc(NC(=O)C(C#N)=Cc3ccco3)cc21 [9-F18, 2-cyano-3-(furan-2-yl)-N-{1-[(methylcarbamoyl)methyl]-1H-indol-6-yl}prop-2-enamide]
- viability at 48 h, 25 µM: 109%

SMILES: CCN(Cc1cccs1)C(=O)CCl [5-F07, 2-chloro-N-ethyl-N-[(thiophen-2-yl)methyl]acetamide]
- viability at 48 h, 25 µM: 1.01%

SMILES: C=CC(=O)N1CCC(S(=O)(=O)NC(C)C)C1 (stereo not drawn) [1-D19, 1-(prop-2-enoyl)-N-(propan-2-yl)pyrrolidine-3-sulfonamide]
- viability at 48 h, 25 µM: 218%

SMILES: CC(Cl)C(=O)NCc1nc2c(s1)CC(c1ccccc1)CC2 (stereo not drawn) [7-A05, 2-chloro-N-[(6-phenyl-4,5,6,7-tetrahydro-1,3-benzothiazol-2-yl)methyl]propanamide]
- viability at 48 h, 25 µM: 57.5%

SMILES: CC(Cl)C(=O)Nc1cccc(S(=O)(=O)N(C)C)c1 (stereo not drawn) [5-A07, 2-chloro-N-[3-(dimethylsulfamoyl)phenyl]propanamide]
- viability at 48 h, 25 µM: 55.5%

SMILES: CC(O)CN(Cc1ccc(Cl)c(F)c1)C(=O)CCl (stereo not drawn) [5-K12, 2-chloro-N-[(4-chloro-3-fluorophenyl)methyl]-N-(2-hydroxypropyl)acetamide]
- viability at 48 h, 25 µM: 0.478%

SMILES: NC(=O)Nc1ccc(C(=O)CCl)cc1 [10-J07, [4-(2-chloroacetyl)phenyl]urea]
- viability at 48 h, 25 µM: 108%

SMILES: O=C(CCl)NC(c1ccccc1)c1ccc(Cl)cc1 (stereo not drawn) [4-G04, 2-chloro-N-[(4-chlorophenyl)(phenyl)methyl]acetamide]
- viability at 48 h, 25 µM: -0.0119%

SMILES: CC(c1cccc(NC(=O)c2ccccc2)c1)N(C)C(=O)CCl (stereo not drawn) [6-M22, N-{3-[1-(2-chloro-N-methylacetamido)ethyl]phenyl}benzamide]
- viability at 48 h, 25 µM: 0.237%

SMILES: CCCSc1nsc(NC(=O)CCl)n1 [4-G15, 2-chloro-N-[3-(propylsulfanyl)-1,2,4-thiadiazol-5-yl]acetamide]
- viability at 48 h, 25 µM: 17.4%

SMILES: CC(Cl)C(=O)N[C@H]1CCC(=O)N[C@@H]1c1ccnn1C (mixture of isomers) [6-B14, rac-2-chloro-N-[(2R,3R)-2-(1-methyl-1H-pyrazol-5-yl)-6-oxopiperidin-3-yl]propanamide]
- viability at 48 h, 25 µM: 92.4%

SMILES: C=CC(=O)Nc1ccc(C2=NNC(=O)CO2)cc1 [3-L18, N-[4-(5-oxo-5,6-dihydro-4H-1,3,4-oxadiazin-2-yl)phenyl]prop-2-enamide]
- viability at 48 h, 25 µM: 67.1%

SMILES: COc1cccc2c1CCC2(CO)NC(=O)CCl (stereo not drawn) [5-C20, 2-chloro-N-[1-(hydroxymethyl)-4-methoxy-2,3-dihydro-1H-inden-1-yl]acetamide]
- viability at 48 h, 25 µM: 58.2%

SMILES: C=CC(=O)NCc1cnc(C)n1-c1ccccc1 [2-F19, N-[(2-methyl-1-phenyl-1H-imidazol-5-yl)methyl]prop-2-enamide]
- viability at 48 h, 25 µM: 49%
